Values of other authors as cited in patent publication US12648912B2 (Mylan Laboratories Limited, priority 2020, dated 2026).

How the values were obtained:
[1] = not given; remark: listed apart in the source

solubility in methanol (methanol): very slightly soluble
solubility in water (water): practically insoluble
Tmax in fasted state relative to after breakfast ([1]; 15 mg tablets, fasted state): doubled
Tmax (time to reach maximum concentration) ([1]; orally delivered, humans): 4 to 6 h
second meloxicam concentration peak, time post-dose ([1]; post-dose, suggested gastrointestinal recirculation): 12 to 14 h
Structure (SMILES): Cc1cnc(NC(=O)C2=C(O)c3ccccc3S(=O)(=O)N2C)s1 [Meloxicam, 4-hydroxy-2-methyl-N-(5-methyl-2-thiazolyl)-2H-1,2-benzothiazine-3-carboxamide-1,1-dioxide]
